The record followed here is US10947271B2, “Antibacterial agents” (THE UNIVERSITY OF QUEENSLAND, priority 2014, dated 2021).

Each structure is given as a SMILES string.

Common to all, as to type: cell-based
Details in all cases: 24 h incubation, visual reading

Test [1] relates to Staphylococcus aureus MRSA ATCC 43300. Nature of the test: MIC assay, S. aureus MRSA ATCC 43300. The protocol: (§1) Antimicrobial activity of compounds was tested against a number of bacterial strains, including Staphylococcus aureus (MRSA ATCC 43300, GISA NRS17, VISA NRS1, MRSA clinical isolate, daptomycin resistant clinical isolate), Streptococcus pneumoniae (MDR ATCC 700677), Enterococcus faecalis (VanA clinical isolate) and Enterococcus faecium (MDR Van A ATCC 51559).
(§2) All compounds were prepared to 160 μg/ml solution in water from a stock solution of 1 mM concentration.
(§3) The compounds, along with standard antibiotics were serially diluted twofold across the wells of 96-well non-binding surface plates (NBS, Corning). Standards ranged from 64 μg/ml to 0.03 μg/ml and compounds from 8 μg/ml to 0.003 μg/ml with final volumes of 50 μL per well. Gram positive bacteria were cultured in Muller Hinton broth (MHB) (Bacto laboratories, Cat. no. 211443) at 37° C. overnight. A sample of each culture was then diluted 40-fold in fresh MHB broth and incubated at 37° C. for 2-3 hrs. The resultant mid-log phase cultures were diluted to the final concentration of 5×10e5 CFU/mL, then 50 μL was added to each well of the compound-containing 96-well plates. All the plates were covered and incubated at 37° C. for 24 h. MICs were the lowest concentration showing no visible growth.
(§4) MICs were determined visually at 24 hr incubation and the MIC was defined as the lowest concentration with which no growth was visible after incubation. Both MIC and MBC were determined by visual inspection only.

Test [2] concerns Streptococcus pneumoniae MDR ATCC 700677. The test can be described thus: MIC assay, S. pneumoniae MDR ATCC 700677. The protocol:
as §1, §2, §3, §4

Test [3] deals with Enterococcus faecium MDR Van A ATCC 51559. The test can be described thus: MIC assay, E. faecium MDR Van A ATCC 51559. The protocol:
as §1, §2, §3, §4

Consider `CCCCCOc1ccc(C(=O)N[C@@H](CCCCN)C(=O)N[C@@H](CCCCN)C(=O)N[C@@H](CCCCNC(=O)[C@H]2NC(=O)[C@H]3NC(=O)[C@H](NC(=O)[C@@H]4NC(=O)[C@H](CC(N)=O)NC(=O)[C@H](NC(=O)[C@@H](CC(C)C)NC)[C@H](O)c5ccc(c(Cl)c5)Oc5cc4cc(c5O[C@@H]4O[C@H](CO)[C@@H](O)[C@H](O)[C@H]4O[C@H]4C[C@](C)(N)[C@H](O)[C@H](C)O4)Oc4ccc(cc4Cl)[C@H]3O)c3ccc(O)c(c3)-c3c(O)cc(O)cc32)C(=O)O)cc1` [MCC_005504], for which, in test [1], the “Minimum Inhibitory Concentration (MIC) Staph. aureus ATCC43300” value is recorded as “xxx (xxx = 0.1-<1)”. Further, the “Minimum Inhibitory Concentration (MIC) S. pneumoniae ATCC 700677” value in test [2] is “xxx (xxx = 0.1-<1)”. Besides, the “Minimum Inhibitory Concentration (MIC) E. faecium ATCC51559” value in test [3] was “x (x = >4)”.

`CCCCCCC(CCCC)C(=O)NCCCC[C@H](NC(=O)C(CCCC)CCCCCC)C(=O)N[C@@H](CCCCN)C(=O)N[C@@H](CCCCN)C(=O)N[C@@H](CCCCNC(=O)[C@H]1NC(=O)[C@H]2NC(=O)[C@H](NC(=O)[C@@H]3NC(=O)[C@H](CC(N)=O)NC(=O)[C@H](NC(=O)[C@@H](CC(C)C)NC)[C@H](O)c4ccc(c(Cl)c4)Oc4cc3cc(c4O[C@@H]3O[C@H](CO)[C@@H](O)[C@H](O)[C@H]3O[C@H]3C[C@](C)(N)[C@H](O)[C@H](C)O3)Oc3ccc(cc3Cl)[C@H]2O)c2ccc(O)c(c2)-c2c(O)cc(O)cc21)C(=O)NC` (stereo partly drawn) [MCC_000773]: in test [1], the “Minimum Inhibitory Concentration (MIC) Staph. aureus ATCC43300” value is “xxxx (xxxx = 0.01-<0.1)”. In test [2], the “Minimum Inhibitory Concentration (MIC) S. pneumoniae ATCC 700677” value is “xxxx (xxxx = 0.01-<0.1)”. In addition, the “Minimum Inhibitory Concentration (MIC) E. faecium ATCC51559” value in test [3] was “xxx (xxx = 0.1-<1)”.

In the case of `CCCCCCCCCCCCCC(=O)NC(CCCCN)C(=O)NC(CCCCN)C(=O)NC(CCCCN)C(=O)NC(CCCCNC(=O)C1NC(=O)C2NC(=O)C(NC(=O)C3NC(=O)C(CC(N)=O)NC(=O)C(NC(=O)C(CC(C)C)NC)C(O)c4ccc(c(Cl)c4)Oc4cc3cc(c4OC3OC(CO)C(O)C(O)C3OC3CC(C)(N)C(O)C(C)O3)Oc3ccc(cc3Cl)C2O)c2ccc(O)c(c2)-c2c(O)cc(O)cc21)C(=O)OC` (stereo not drawn) [MCC_000635], the “Minimum Inhibitory Concentration (MIC) Staph. aureus ATCC43300” value in test [1] is given as “xxxxx (xxxxx = <0.01)”. In addition, the “Minimum Inhibitory Concentration (MIC) S. pneumoniae ATCC 700677” value in test [2] is listed as “xxxxx (xxxxx = <0.01)”. Moreover, the “Minimum Inhibitory Concentration (MIC) E. faecium ATCC51559” value in test [3] is listed as “xxxxx (xxxxx = <0.01)”.

Regarding `CCCCCCCCCCCCC(=O)NC(CCCCN)C(=O)NC(CCCCN)C(=O)NC(CCCCNC(=O)C1NC(=O)C2NC(=O)C(NC(=O)C3NC(=O)C(CC(N)=O)NC(=O)C(NC(=O)C(CC(C)C)NC)C(O)c4ccc(c(Cl)c4)Oc4cc3cc(c4OC3OC(CO)C(O)C(O)C3OC3CC(C)(N)C(O)C(C)O3)Oc3ccc(cc3Cl)C2O)c2ccc(O)c(c2)-c2c(O)cc(O)cc21)C(=O)NC` (stereo not drawn) [MCC_000494], the “Minimum Inhibitory Concentration (MIC) Staph. aureus ATCC43300” value in test [1] is given as “xxxxx (xxxxx = <0.01)”. Moreover, in test [2], the “Minimum Inhibitory Concentration (MIC) S. pneumoniae ATCC 700677” value is recorded as “xxxxx (xxxxx = <0.01)”. Moreover, the “Minimum Inhibitory Concentration (MIC) E. faecium ATCC51559” value in test [3] is listed as “xx (xx = 1-4)”.

Consider `CCCCCCCC(=O)NCCCC[C@H](NC(=O)CCCCCCC)C(=O)N[C@@H](CCCCN)C(=O)N[C@@H](CCCCN)C(=O)N[C@@H](CCCCNC(=O)[C@H]1NC(=O)[C@H]2NC(=O)[C@H](NC(=O)[C@@H]3NC(=O)[C@H](CC(N)=O)NC(=O)[C@H](NC(=O)[C@@H](CC(C)C)NC)[C@H](O)c4ccc(c(Cl)c4)Oc4cc3cc(c4O[C@@H]3O[C@H](CO)[C@@H](O)[C@H](O)[C@H]3O[C@H]3C[C@](C)(N)[C@H](O)[C@H](C)O3)Oc3ccc(cc3Cl)[C@H]2O)c2ccc(O)c(c2)-c2c(O)cc(O)cc21)C(=O)NC` [MCC_000654], for which the “Minimum Inhibitory Concentration (MIC) Staph. aureus ATCC43300” value in test [1] is “xxxxx (xxxxx = <0.01)”. In addition, the “Minimum Inhibitory Concentration (MIC) S. pneumoniae ATCC 700677” value in test [2] is reported as “xxxx (xxxx = 0.01-<0.1)”. In addition, the “Minimum Inhibitory Concentration (MIC) E. faecium ATCC51559” value in test [3] is reported as “xx (xx = 1-4)”.

As for `CCCCCCc1ccc(C(=O)NC(CCCCN)C(=O)NC(CCCCN)C(=O)NC(CCCCNC(=O)C2NC(=O)C3NC(=O)C(NC(=O)C4NC(=O)C(CC(N)=O)NC(=O)C(NC(=O)C(CC(C)C)NC)C(O)c5ccc(c(Cl)c5)Oc5cc4cc(c5OC4OC(CO)C(O)C(O)C4OC4CC(C)(N)C(O)C(C)O4)Oc4ccc(cc4Cl)C3O)c3ccc(O)c(c3)-c3c(O)cc(O)cc32)C(=O)NC)cc1` (stereo not drawn) [MCC_000499], in test [1], the “Minimum Inhibitory Concentration (MIC) Staph. aureus ATCC43300” value was “xxxx (xxxx = 0.01-<0.1)”. In addition, the “Minimum Inhibitory Concentration (MIC) S. pneumoniae ATCC 700677” value in test [2] is “xxxx (xxxx = 0.01-<0.1)”. Besides, in test [3], the “Minimum Inhibitory Concentration (MIC) E. faecium ATCC51559” value is “xx (xx = 1-4)”.

With `CCCCCCCCCCCCC(=O)N[C@@H](CCCCN)C(=O)N[C@@H](CCCCN)C(=O)N[C@@H](CCCCNC(=O)[C@H]1NC(=O)[C@H]2NC(=O)[C@H](NC(=O)[C@@H]3NC(=O)[C@H](CC(N)=O)NC(=O)[C@H](NC(=O)[C@@H](CC(C)C)NC)[C@H](O)c4ccc(c(Cl)c4)Oc4cc3cc(c4O[C@@H]3O[C@H](CO)[C@@H](O)[C@H](O)[C@H]3O[C@H]3C[C@](C)(N)[C@H](O)[C@H](C)O3)Oc3ccc(cc3Cl)[C@H]2O)c2ccc(O)c(c2)-c2c(O)cc(O)cc21)C(N)=O` [MCC_000975], the “Minimum Inhibitory Concentration (MIC) Staph. aureus ATCC43300” value in test [1] is on record as “xxxxx (xxxxx = <0.01)”. Moreover, in test [2], the “Minimum Inhibitory Concentration (MIC) S. pneumoniae ATCC 700677” value was “xxxxx (xxxxx = <0.01)”. In addition, the “Minimum Inhibitory Concentration (MIC) E. faecium ATCC51559” value in test [3] was “xxx (xxx = 0.1-<1)”.

With `CCCCCCCCC(=O)N[C@@H](CCCCN(C)C)C(=O)N[C@@H](CCCCNC(=O)[C@H]1NC(=O)[C@H]2NC(=O)[C@H](NC(=O)[C@@H]3NC(=O)[C@H](CC(N)=O)NC(=O)[C@H](NC(=O)[C@@H](CC(C)C)NC)[C@H](O)c4ccc(c(Cl)c4)Oc4cc3cc(c4O[C@@H]3O[C@H](CO)[C@@H](O)[C@H](O)[C@H]3O[C@H]3C[C@](C)(N)[C@H](O)[C@H](C)O3)Oc3ccc(cc3Cl)[C@H]2O)c2ccc(O)c(c2)-c2c(O)cc(O)cc21)C(=O)O` [MCC_007386], the “Minimum Inhibitory Concentration (MIC) Staph. aureus ATCC43300” value in test [1] is recorded as “xx (xx = 1-4)”. Besides, the “Minimum Inhibitory Concentration (MIC) S. pneumoniae ATCC 700677” value in test [2] was “xx (xx = 1-4)”. Also, the “Minimum Inhibitory Concentration (MIC) E. faecium ATCC51559” value in test [3] is on record as “x (x = >4)”.

On to `CCCCCOc1ccc(C(=O)NCCCCC(NC(=O)c2ccc(OCCCCC)cc2)C(=O)NC(CCCCN)C(=O)NC(CCCCNC(=O)C2NC(=O)C3NC(=O)C(NC(=O)C4NC(=O)C(CC(N)=O)NC(=O)C(NC(=O)C(CC(C)C)NC)C(O)c5ccc(c(Cl)c5)Oc5cc4cc(c5OC4OC(CO)C(O)C(O)C4OC4CC(C)(N)C(O)C(C)O4)Oc4ccc(cc4Cl)C3O)c3ccc(O)c(c3)-c3c(O)cc(O)cc32)C(=O)NC)cc1` (stereo not drawn) [MCC_000502], for which, in test [1], the “Minimum Inhibitory Concentration (MIC) Staph. aureus ATCC43300” value is on record as “xxxxx (xxxxx = <0.01)”. For the same compound, the “Minimum Inhibitory Concentration (MIC) S. pneumoniae ATCC 700677” value in test [2] is recorded as “xxxxx (xxxxx = <0.01)”. In test [3], the “Minimum Inhibitory Concentration (MIC) E. faecium ATCC51559” value is on record as “xxx (xxx = 0.1-<1)”.

With `CCCCCCCCCC(=O)N[C@@H](CCCCN1CCCCC1)C(=O)N[C@@H](CCCCNC(=O)[C@H]1NC(=O)[C@H]2NC(=O)[C@H](NC(=O)[C@@H]3NC(=O)[C@H](CC(N)=O)NC(=O)[C@H](NC(=O)[C@@H](CC(C)C)NC)[C@H](O)c4ccc(c(Cl)c4)Oc4cc3cc(c4O[C@@H]3O[C@H](CO)[C@@H](O)[C@H](O)[C@H]3O[C@H]3C[C@](C)(N)[C@H](O)[C@H](C)O3)Oc3ccc(cc3Cl)[C@H]2O)c2ccc(O)c(c2)-c2c(O)cc(O)cc21)C(=O)O` [MCC_007328], the “Minimum Inhibitory Concentration (MIC) Staph. aureus ATCC43300” value in test [1] is on record as “xxx (xxx = 0.1-<1)”. Also, the “Minimum Inhibitory Concentration (MIC) S. pneumoniae ATCC 700677” value in test [2] is reported as “xxx (xxx = 0.1-<1)”. The “Minimum Inhibitory Concentration (MIC) E. faecium ATCC51559” value in test [3] was “x (x = >4)”.

With `CCCCCCCCCCC(=O)NC(CCCNC(=N)N)C(=O)NCCCNC(=O)C1NC(=O)C2NC(=O)C(NC(=O)C3NC(=O)C(CC(N)=O)NC(=O)C(NC(=O)C(CC(C)C)NC)C(O)c4ccc(c(Cl)c4)Oc4cc3cc(c4OC3OC(CO)C(O)C(O)C3OC3CC(C)(N)C(O)C(C)O3)Oc3ccc(cc3Cl)C2O)c2ccc(O)c(c2)-c2c(O)cc(O)cc21` (stereo not drawn) [MCC_007337], the “Minimum Inhibitory Concentration (MIC) Staph. aureus ATCC43300” value in test [1] was “xxxxx (xxxxx = <0.01)”. Further, in test [2], the “Minimum Inhibitory Concentration (MIC) S. pneumoniae ATCC 700677” value is recorded as “xxxxx (xxxxx = <0.01)”. Moreover, the “Minimum Inhibitory Concentration (MIC) E. faecium ATCC51559” value in test [3] is “xx (xx = 1-4)”.

As to `CCCCCCCCCCCCC(=O)N[C@@H](CCCCN)C(=O)N[C@@H](CCCCN)C(=O)N[C@@H](CCCCN)C(=O)N[C@@H](CCCCNC(=O)[C@H]1NC(=O)[C@H]2NC(=O)[C@H](NC(=O)[C@@H]3NC(=O)[C@H](CC(N)=O)NC(=O)[C@H](NC(=O)[C@@H](CC(C)C)NC)[C@H](O)c4ccc(c(Cl)c4)Oc4cc3cc(c4O[C@@H]3O[C@H](CO)[C@@H](O)[C@H](O)[C@H]3O[C@H]3C[C@](C)(N)[C@H](O)[C@H](C)O3)Oc3ccc(cc3Cl)[C@H]2O)c2ccc(O)c(c2)-c2c(O)cc(O)cc21)C(=O)O` [MCC_000350], the “Minimum Inhibitory Concentration (MIC) Staph. aureus ATCC43300” value in test [1] was “xxxxx (xxxxx = <0.01)”. Besides, in test [2], the “Minimum Inhibitory Concentration (MIC) S. pneumoniae ATCC 700677” value is listed as “xxxxx (xxxxx = <0.01)”. Also, the “Minimum Inhibitory Concentration (MIC) E. faecium ATCC51559” value in test [3] is “xxx (xxx = 0.1-<1)”.
